# According to patent US20260102460A1, “NOVEL COMBINATIONS OF ANTIBIOTICS AND NON-ANTIBIOTIC DRUGS EFFECTIVE IN VIVO AGAINST GRAM-POSITIVE BACTERIA, IN PARTICULAR METHICILLIN-RESISTANT S. AUREUS (MRSA)” (EUROPEAN MOLECULAR BIOLOGY LABORATORY, priority 2022, published 2026):
# “Also recorded” adds a separate entry of the source.
# Tests used:
# [1] = test system: S. aureus Newman dltABCD and tagG IPTG-inducible knockdown mutants; test: Gentamicin and nisin MIC in dltABCD and tagG knockdown mutants; assay type: cell-based, Staphylococcus aureus; details: dltABCD operon and tagG knockdown, 500 μM IPTG, versus control strain MM76
# Text: A two-plasmid CRISPR interference system was used to knock down gene expression of selected genes in S. aureus Newman. In these strains, dcas is expressed from an IPTG-inducible promoter on plasmid pLOW, while sgRNAs are expressed from a constitute promoter on a plasmid derived from pCG248. The sgRNA-target sequences were […] (SEQ ID NO. 1) for dltABCD and […] (SEQ ID NO. 2) for tagG, and […] (SEQ ID NO. 3) for the non-target control MM76.
# For gentamicin and nisin MIC measurements, dltABCD and tagG IPTG-inducible knockdown mutants (Methods) were grown in two-fold dilutions of nisin and gentamicin, in presence of erythromycin (5 μg/ml) and chloramphenicol (10 μg/ml) for plasmid maintenance. IPTG (500 μM) was used to achieve maximal knockdown of the gene targeted. The parent S. aureus Newman and the control strain MM76 (Methods) were included in all experiments, and experiments were conducted in four biological replicates, in 384-well plates (ref. 781271 by Greiner BioOne). For each plate, the inventors identified the time point where the control strain MM76 (in presence of erythromycin, chloramphenicol and IPTG at the above-mentioned concentrations) reached plateau, defined as the first time point before no increase was detected in log 10 (OD595 nm) values of two consecutive time points. […]
# [2] = test system: S. aureus (two strains); test: High-throughput screen of drug combinations (4×4 broth microdilution checkerboard, Bliss scores); assay type: cell-based, Staphylococcus aureus; details: for drug-drug interaction (synergy / antagonism, Bliss model): S. aureus Newman and DSM 20231, fitness from OD595nm at 8 h, synergy = first quartile of Bliss scores <−0.1, antagonism = third quartile >0.1, FDR <0.05
# Description: (§1) MICs were tested in all strains for the main screen. Drugs were two-fold serially diluted in 11 concentrations, and 32 no-drug control wells were included in each plate. Experiments were conducted in 384-well plates (ref. 781271 by Greiner BioOne), with a total volume of 30 μl for S. aureus and B. subtilis and 55 μl for S. pneumoniae. Volumes were optimized for each strain to achieve good dynamic range for growth and minimize risk of cross-contamination between wells. Plates were inoculated with a starting optical density at 595 nm (OD595 nm) of 0.01 from an overnight culture. All liquid handling was performed using a Biomek FX liquid handler (Beckman Coulter). Plates were sealed with breathable membranes and incubated at 37° C. OD595 nm was measured every 30 minutes for 14 hours. The MIC was considered as the first concentration at which growth was inhibited. Experiments were conducted in biological duplicates. For the adjuvant screen, antibiotics were tested in S. aureus DSM 20231 at the same concentrations as for the main screen. Non-antibiotics concentrations were selected to fall within therapeutic ranges.
# (§2) 62 drugs, hereafter designated as recipients, were arrayed in 384-well plates (ref. 781271 by Greiner BioOne) in three two-fold serial dilutions and two technical replicates. Concentrations were selected according to MICs, with the highest concentration corresponding to the MIC, and the intermediate and lowest concentration corresponding to ½ and ¼ MIC, respectively. Plates were kept frozen and defrosted upon each experimental run, when the same 62 drugs and in the same three concentrations were added as donor drugs (one drug at one concentration for each recipient plate). A few drugs were screened only as donors: the combinations co-amoxiclav and cotrimoxazole in B. subtilis and S. aureus DSM 20231; co-amoxiclav, clavulanic acid, pseudomonic acid and cefuroxime in S. aureus Newman. All donor drugs were tested in two biological replicates. Control wells were included in each plate (six no-drug wells, three plain medium wells and three wells containing only the donor drug). After the addition of donor drugs, plates were inoculated with cells. Handling, inoculation, growth conditions, plate incubation and OD595 nm measurements were performed as for the MIC determination.
# [3] = test system: MDR S. aureus isolates; details: Mueller-Hinton broth (MHB), 22 h; cited from earlier work
# [4] = test system: S. aureus DSM 20231; test: Adjuvant (extended non-antibiotic) combination screen; assay type: cell-based, Staphylococcus aureus; details: S. aureus DSM 20231; original and extended non-antibiotic screen (FIG. 4d); 4×4 dose matrix
# Description: as §1, §2
# For the adjuvant screen, 44 non-antibiotic drugs were tested against the same recipient drugs of the main screen for S. aureus DSM 20231.
# The inventors selected 44 drugs to include pharmaceuticals that can be co-administered with antibiotics in S. aureus infections or non-antibiotics with previously reported antibacterial activity against S. aureus. […] Interactions were scored and benchmarked as for the main screen (Methods).
# [5] = test system: multi-drug resistant E. coli isolates; details: vanillin paired with spectinomycin; Gram-negative pathogenic and multi-drug resistant E. coli isolates; cited from earlier work
compound,measurement,setting,value
gentamicin,change of MIC in CRISPRi knockdown mutants,[1],decrease
C[C@@H]1O[C@@H]1P(=O)(O)O [fosfomycin],"drug-drug interaction (synergy / antagonism, Bliss model)",[2],"strongly synergized with a diverse range of protein-synthesis inhibitors (lincosamides, oxazolidinones, streptomycin); also recorded: synergized with almost all classes of translation inhibitors, including macrolides, tetracyclines and spectinomycin"
COc1cc(Cc2cnc(N)nc2N)cc(OC)c1OC [trimethoprim],"drug-drug interaction (synergy / antagonism, Bliss model)",[2],a number of synergies with other drugs
teicoplanin,killing by single drug,[3],complete killing
CCN(CC)CCOc1ccc(C(=C(Cl)c2ccccc2)c2ccccc2)cc1 [clomifene],"interactions between non-antibiotic drug and antibiotics (synergy / antagonism, Bliss model)",[4],synergies with cell-wall acting drugs; also recorded: antagonism with streptomycin
CC(=O)Oc1ccccc1C(=O)O [acetylsalicylic acid],"interactions between non-antibiotic drug and antibiotics (synergy / antagonism, Bliss model)",[4],"synergy with cefuroxime; also recorded: antagonisms with ciprofloxacin, oxacillin and azithromycin"
COc1cc(C=O)ccc1O [vanillin],inhibitory effect on growth,[5],surprisingly strong inhibitory effect on the growth
nisin,change of MIC in CRISPRi knockdown mutants,[1],decrease
O=C(O)[C@H]1/C(=C/CO)O[C@@H]2CC(=O)N21 [clavulanic acid],"drug-drug interaction (synergy / antagonism, Bliss model)",[2],a number of synergies with other drugs
CN(C)C(=O)C(CCN1CCC(O)(c2ccc(Cl)cc2)CC1)(c1ccccc1)c1ccccc1 [loperamide],"drug-drug interaction (synergy / antagonism, Bliss model)",[2],broad antagonism with macrolides
same,rank by number of interactions with antibiotics,[2]; the inventors' screen,highest number of interactions with antibiotics
